Laboratory results from patent US6160008A, “Pharmaceutical compositions comprising S-alkylisothiouronium derivatives” (priority 1996, dated 2000).
“Also recorded” adds a separate entry of the source.

Legend:
arterial blood pressure = test: Influence of single intravenous injection on arterial blood pressure, heart rate and respiratory rate in anesthetized cats (Table 1, FIGS. 1-10); assay type: in vivo; settings: 5 mg/kg i.v.
Description: Experiments were performed on 52 anesthetized (intraperitoneally with 45 mg/kg of sodium pentobarbital) cats of both genders with body mass of 2.8-4.2 kg. Arterial pressure was measured by a mercury pressure gauge; measurements were also performed by ECG. Simultaneously, the respiratory frequency was registered. The hypertensive effect was determined as percent increase relative to the initial level of systolic arterial pressure (SAP). The duration of observation was 1-3 hours; the heart rate (HR) was calculated on the basis of ECG.

[1] = test system: rats exposed to an oxygen pressure of 3 atm; test: Survival under oxygen pressure of 3 atm, rats (Table 15); assay type: in vivo, Wistar rat; settings: 5 hours
Description: Animals were exposed to oxygen under increased pressure in a hyperbaric chamber <<Mana-2≤≤ for treatment of infants above 1 year, which was adjusted for the experiments on animals. The hyperbaric chamber design permitted to create excessive pressure up to 3 atm and to observe animal behavior from outside.
The experiments were performed on males of F1 (CBAx57B1) mice line and on males of Wistar rat line. Animals were placed in the hyperbaric chamber in plastic boxes and the atmospheric air was replaced by oxygen. The period of compression-decompression was 10 minutes. The exposure of the animals to an oxygen pressure of 3 atm during a period of 2 hours caused only some increase in their motion activity. Further staying of rats and mice in those conditions led to a decrease in the motion activity, to asphyxia with short periods of excitement and cramps. The death of some animals was registered after 2.5-3 hours, 50% after 4 hours, and 75% of mice and 100% of rats were dead after 5 hours.
When the influence of Difetur and Etyron was studied, the animals were exposed to an oxygen pressure of 3 atm during 5 hours if not otherwise specified. Preparations were injected 5-10 minutes before the session.

[2] = Biochemical indices of mice blood serum, chronic experiment (Table 9); assay type: in vivo, F1 (C57B1×CBA); settings: for Body mass / Glucose / Total cholestrol / Total protein: 100 mg/kg i.v.; for Total protein: in g/L (unit assumed)
Description: The effect of S-ethylisothiouronium diethylphosphate on body constituents was estimated in chronic and acute experiments. These experiments were conducted on F1 (C57B1×CBA) line mice and biochemical tests were made after a single administration of S-ethylisothiouronium diethylphosphate, injected intravenously at doses of 100 mg/kg (in the chronic experiment) and 500 mg/kg (in the acute experiment).
In the acute experiment, blood was taken 30, 60 and 75 minutes after the administration of the medicine. In the chronic experiment (which lasted 30 days), blood was daily examined 1 hour after the injection. Terms of the study were 1, 7, 14, and 21 days. The concentrations of total protein, total cholesterol, and glucose in mice blood serum were determined by conventional methods. Total protein was determined by a biuret method, total cholesterol--by like method, glucose--by the glucose-oxidase method.
Mouse blood was obtained after rapid decapitation. Tested material was sampled at the same time of the day and on the same season.
Blood for serum was sampled into centrifuge test tubes, put into the thermostat for 30-40 minutes; the clot was outlined by a needle, then it was put into a refrigerator for 1 hour+4° C. After cooling it was centrifuged at 3000 RPM during 10-15 minutes. Serum with no signs of hemolysis was sampled into a clean tube. All quantitative indices of the blood biochemical characteristics were obtained by spectrophotometric measurements. Calibration curves to determine total protein and cholesterol were constructed in advance.

[3] = test system: system hemodynamic indices; test: System hemodynamic indices in narcotised cats (Table 2); assay type: in vivo
Description: An experimental study of the S-ethylisothiouronium diethylphosphate effect on the indices of system hemodynamics were performed on 8 narcotised cats with a body mass of 2-4 kg. Urethane (30% solution intraperitoneally, 1-1.2 g/kg) was used for narcostisation. To determine the period of maximum efficiency and duration of the preparation effect, the major parameters of the blood circulation were determined before its introduction (initial data) and on the 2nd, 15th, 30th, and 60th minute after the introduction, at a dose of 5 mg/kg.
The system hemodynamics was estimated on the basis of the following indices: arterial blood pressure (AP), heart rate (HR), minute volume of blood circulation (MVC), stroke volume of the heart (SV), total vascular peripheral resistance (PR), work of the left ventricle (Alv).
The arterial pressure was measured in the left […] of cats by a mercury pressure gauge. To prevent blood clotting, 0.2-0.3 ml (1000-1500 units) of heparin was injected intravenously. Heart rate was calculated according to the R--R interval of electrocardiogram. Recording was performed through two-channel electrocardiograph. MVC was calculated according to Ramirez A. A. et al. (1956). SV, ARV, and PR were calculated from the data on MVC, AP, central blood volume, and HR using C. G Wiggers formular (1947). Quantitative material obtained in the experiments was subjected to statistical analysis by the Student t-test.

[4] = listed as S-ethylisothiuronium diethylphosphate
[5] = 5 mg/kg i.v., 2 min after injection
[6] = 5 mg/kg i.v., 15 min after injection
[7] = 5 mg/kg i.v., 30 min after injection
[8] = 5 mg/kg i.v., 60 min after injection

SMILES: CCSC(=N)N [S-ethylisothiouronium diethylphosphate]
- Hypertensive activity, % (increase relative to the initial level of SAP) (arterial blood pressure): 40%
- Hypertensive effect in words (arterial blood pressure): one of the most active compounds; also recorded: most active compound
- RR (influence on respiratory rate) (arterial blood pressure): increases RR
- Time to achieve maximum effect (arterial blood pressure): 2 min
- Hypertensive activity (increase of SAP) (arterial blood pressure; given as "> SAP by", listed as S-ethylisothiuronium diethylphosphate): 40 mm Hg
- Duration of effect (arterial blood pressure; [4]): 1 to 1.5 h
- Hypertensive activity, % (increase relative to the initial level of SAP) (arterial blood pressure; [4]): 40%
- Influence on HR (arterial blood pressure; [4]): Bradycardia
- RR (influence on respiratory rate) (arterial blood pressure; [4]): Increases
- Number of survived animals ([1]; 5 mg/kg): 60%
- Number of survived animals ([1]; 10 mg/kg): 50%
- Number of survived animals ([1]; 20 mg/kg): 70%
- Body mass ([2]; 1st day): 23.8 ± 0.1 g
- Glucose ([2]; 1st day): 7.1 ± 1.4 mmol/L
- Total cholestrol ([2]; 1st day): 4.7 ± 0.9 mmol/L
- Total protein ([2]; 1st day): 75.6 ± 4.9
- Body mass ([2]; 7th day): 24.0 ± 0.2 g
- Glucose ([2]; 7th day): 8.2 ± 1.8 mmol/L
- Total cholestrol ([2]; 7th day): 5.0 ± 0.6 mmol/L
- Total protein ([2]; 7th day): 63.5 ± 4.4
- Body mass ([2]; 14th day): 28.1 ± 0.3 g
- Glucose ([2]; 14th day): 8.8 ± 1.7 mmol/L
- Total cholestrol ([2]; 14th day): 3.0 ± 0.36 mmol/L
- Total protein ([2]; 14th day): 72.4 ± 3.3
- Body mass ([2]; 21st day): 26.1 ± 0.5 g
- Glucose ([2]; 21st day): 9.9 ± 1.8 mmol/L
- Total cholestrol ([2]; 21st day): 4.9 ± 0.42 mmol/L
- Total protein ([2]; 21st day): 74.9 ± 2.4
- Serum biochemistry in words ([2]; 100 mg/kg, chronic experiment): fluctuations of the studied parameters do not exceed the limits of physiological fluctuations
- AP increase relative to the initial level ([3]; 5 mg/kg i.v., 2nd minute): 41%
- Alv above the initial value ([3]; 5 mg/kg i.v., 2nd minute): 89%
- MVC increase ([3]; 5 mg/kg i.v., 2nd minute): 7%
- PR, % of the initial level ([3]; 5 mg/kg i.v., 2nd minute): 135%
- Alv above the initial value ([3]; 5 mg/kg i.v., 15th minute): 22%
- MVC decrease ([3]; 5 mg/kg i.v., 15th minute): 11%
- MVC decrease ([3]; 5 mg/kg i.v., 30th minute): 22%
- AP above the initial level ([3]; 5 mg/kg i.v., 60th minute): 11%
- PR above the initial value ([3]; 5 mg/kg i.v., 60th minute): 58%
- AP [3, 5]: 168 ± 9.9 mm Hg
- Alv [3, 5]: 486.2 ± 136.8 g·cm
- HF [3, 5]: 166 ± 17.9 per min.
- MVC [3, 5]: 101.9 ± 6.8 mL/min
- PR [3, 5]: 138.6 ± 10.5 10^3 . din . c . cm^-5 /kg
- Stroke volume [3, 5]: 2.14 ± 0.45 mL
- AP [3, 6]: 158 ± 8.1 mm Hg
- Alv [3, 6]: 317.1 ± 59.4 g·cm
- HF [3, 6]: 178 ± 15.4 per min.
- MVC [3, 6]: 84.3 ± 5.7 mL/min
- PR [3, 6]: 153.8 ± 7.1 10^3 . din . c . cm^-5 /kg
- Stroke volume [3, 6]: 1.46 ± 0.25 mL
- AP [3, 7]: 152 ± 8.4 mm Hg
- Alv [3, 7]: 251.9 ± 50.3 g·cm
- HF [3, 7]: 192 ± 11.9 per min.
- MVC [3, 7]: 74.1 ± 5.2 mL/min
- PR [3, 7]: 168.5 ± 13.0 10^3 . din . c . cm^-5 /kg
- Stroke volume [3, 7]: 1.23 ± 0.21 mL
- AP [3, 8]: 132 ± 9.3 mm Hg
- Alv [3, 8]: 211.3 ± 56.1 g·cm
- HF [3, 8]: 188 ± 10.4 per min.
- MVC [3, 8]: 67.6 ± 8.4 mL/min
- PR [3, 8]: 161.5 ± 14.1 10^3 . din . c . cm^-5 /kg
- Stroke volume [3, 8]: 1.13 ± 0.26 mL
- Duration of hypertensive effect ([3]; 5 mg/kg i.v., single injection): up to 1 hour
- Effect on system hemodynamics in words ([3]; cats): on the 30th minute it returned to the initial level
